# The supplement of paper PMC11061612
# Assays:
# Assay in all cases: Bliss excess, mean over the matrix (fraction); higher = more synergy
# [1] = test system: BV-173 (Chronic Myelogenous Leukemia)
# How it was run: (§1)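 Cell lines grown in DMEM/F12 or RPMI with 10% FBS were plated in 1536-well plates and held 24 hours at 37°C, 5% CO2 before 72 hours of exposure to two-drug dose matrices, with DMSO typically at 0.2%. CellTiter-Glo 2.0 luminescence gave viability, which was converted to inhibition. Vehicle wells were set to 0 and blank wells to 1. Combination Emax is the second-highest inhibition in the matrix, and Bliss excess is the observed combination effect minus the expected EA + EB − EA·EB, where EA and EB are the single-agent effects.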
# EW-18 (Ewing's Sarcoma) = test system: EW-18 (Ewing's Sarcoma)
# How it was run: as §1
# GI-1 (Glioblastoma) = test system: GI-1 (Glioblastoma)
# How it was run: as §1
# [2] = test system: HSC-2 (Oral Cavity Carcinoma)
# How it was run: as §1
# [3] = test system: HuP-T3 (Pancreatic Carcinoma)
# How it was run: as §1
# [4] = test system: JHH-7 (Hepatocellular Carcinoma)
# How it was run: as §1
# [5] = test system: KINGS-1 (Low Grade Glioma)
# How it was run: as §1
# [6] = test system: KLE (Endometrial Carcinoma)
# How it was run: as §1
# [7] = test system: KYSE-150 (Esophageal Squamous Cell Carcinoma)
# How it was run: as §1
# [8] = test system: MFE-319 (Endometrial Carcinoma)
# How it was run: as §1
# NB7 (Neuroblastoma) = test system: NB7 (Neuroblastoma)
# How it was run: as §1
# [9] = test system: NCI-H2347 (Lung Adenocarcinoma)
# How it was run: as §1
# [10] = test system: NCI-H322M (Lung Adenocarcinoma)
# How it was run: as §1
# [11] = test system: NCI-H513 (Other Solid Carcinomas)
# How it was run: as §1
# [12] = test system: NCI-N87 (Gastric Carcinoma)
# How it was run: as §1
# [13] = test system: OCUM-1 (Gastric Carcinoma)
# How it was run: as §1
# RPMI-7951 (Melanoma) = test system: RPMI-7951 (Melanoma)
# How it was run: as §1
# [14] = test system: SNU-C1 (Colorectal Carcinoma)
# How it was run: as §1
# [15] = test system: TGBC11TKB (Gastric Carcinoma)
# How it was run: as §1
SMILES,Bliss excess [1],Bliss excess (EW-18 (Ewing's Sarcoma)),Bliss excess (GI-1 (Glioblastoma)),Bliss excess [2],Bliss excess [3],Bliss excess [4],Bliss excess [5],Bliss excess [6],Bliss excess [7],Bliss excess [8],Bliss excess (NB7 (Neuroblastoma)),Bliss excess [9],Bliss excess [10],Bliss excess [11],Bliss excess [12],Bliss excess [13],Bliss excess (RPMI-7951 (Melanoma)),Bliss excess [14],Bliss excess [15]
"COc1cc2c(cc1OCCCCCOc1cc3c(cc1OC)C(=O)N1C=C(C)C[C@H]1C=N3)N=C[C@@H]1CC(C)=CN1C2=O [SG3199] + O=C(c1cc(Cc2n[nH]c(=O)c3ccccc23)ccc1F)N1CCN(C(=O)C2CC2)CC1 [Olaparib] (first compound max 0.001 µM, 7x7, partner max 10 µM)",0.0535,-0.0629,-0.0178,-0.0751,-0.0442,-0.0368,-0.0434,0.0057,-0.0131,-0.041,-0.0474,-0.0661,-0.0014,-0.0325,-0.0477,-0.0653,0.0032,-0.0446,-0.0038
"CS(=O)(=O)CCNCc1ccc(-c2ccc3ncnc(Nc4ccc(OCc5cccc(F)c5)c(Cl)c4)c3c2)o1 [Lapatinib] + NC1(c2ccc(-c3nc4ccn5c(=O)[nH]nc5c4cc3-c3ccccc3)cc2)CCC1 [MK-2206] (first compound max 10 µM, 7x7, partner max 10 µM)",–,–,0.0275,0.0806,–,-0.036,0.032,–,0.0159,-0.0155,0.0221,-0.0315,–,-0.0369,0.0091,-0.0313,–,-0.0184,-0.0334
"C[C@@H]1COCCN1c1cc(C2([S@](C)(=N)=O)CC2)nc(-c2ccnc3[nH]ccc23)n1 [AZD6738] + O=C(c1cc(Cc2n[nH]c(=O)c3ccccc23)ccc1F)N1CCN(C(=O)C2CC2)CC1 [Olaparib] (first compound max 10 µM, 7x7, partner max 10 µM)",-0.0099,0.0292,0.0039,0.0825,0.0066,0.0012,0.0032,-0.0307,0.0376,-0.0089,0.0202,-0.0515,-0.0491,0.0157,0.0043,-0.0399,0.0207,-0.0345,-0.0236
"COc1cccc(OCCCN)c1-c1cc(Nc2cnc(C#N)cn2)n[nH]1 [Prexasertib] + Cc1cc2ncnn2cc1Nc1ncc2c(n1)n(C1CCOCC1)c(=O)n2C [AZD7648] (first compound max 1 µM, 7x7, partner max 10 µM)",-0.0218,-0.0679,-0.019,-0.0403,0.016,-0.0143,-0.0464,0.0213,-0.0312,-0.0064,-0.0195,-0.0552,-0.0083,0.0134,-0.0119,0.0005,0.0049,-0.0873,-0.0148
"CN(C)CCCOc1ccc(-c2ccc3ncc4c(c3c2)n(C2CCOCC2)c(=O)n4C)cn1 [AZD0156] + C[C@@H]1COCCN1C2=NC(=NC(=C2)C3(CC3)[S@](=N)(=O)C)C4=C5C=CNC5=NC=C4 [AZD6738] (first compound max 1 µM, 7x7, partner max 10 µM)",0.0179,0.0047,-0.0234,0.0867,0.0181,0.0082,-0.0474,-0.0567,0.0146,-0.0027,0.0348,-0.049,-0.0076,0.0235,-0.0286,0.0437,0.0468,0.0001,0.0055
"CCN(CCO)CCCOc1ccc2c(Nc3cc(CC(=O)Nc4cccc(F)c4)[nH]n3)ncnc2c1 [AZD2811] + C[C@@H]1COCCN1C2=NC(=NC(=C2)C3(CC3)[S@](=N)(=O)C)C4=C5C=CNC5=NC=C4 [AZD6738] (first compound max 1 µM, 7x7, partner max 10 µM)",-0.0537,-0.0831,0.0144,-0.0424,-0.067,-0.048,-0.112,-0.0262,-0.0466,-0.0472,0.0084,-0.0319,-0.0484,-0.0145,-0.0855,-0.0188,-0.0291,-0.122,-0.0091
"C=CCn1c(=O)c2cnc(Nc3ccc(N4CCN(C)CC4)cc3)nc2n1-c1cccc(C(C)(C)O)n1 [AZD1775] + O=C(c1cc(Cc2n[nH]c(=O)c3ccccc23)ccc1F)N1CCN(C(=O)C2CC2)CC1 [Olaparib] (first compound max 1 µM, partner max 10 µM)",0.0184,-0.0742,0.0056,-0.0249,-0.0047,-0.0398,-0.0777,-0.0499,0.0282,-0.0235,-0.0171,-0.0921,-0.0222,-0.0399,-0.046,-0.0214,-0.0176,-0.0721,-0.0299
"CCc1c2c(nc3ccc(O)cc13)-c1cc3c(c(=O)n1C2)COC(=O)[C@]3(O)CC [SN-38] + CN(C)CCCOc1ccc(-c2ccc3ncc4c(c3c2)n(C2CCOCC2)c(=O)n4C)cn1 [AZD0156] (first compound max 0.3 µM, 7x7, partner max 1 µM)",-0.0256,-0.0607,0.0399,0.0085,0.0438,0.0084,-0.0185,-0.0034,0.1,-0.0108,-0.0027,-0.0118,0.15,0.0021,-0.0447,-0.0395,0.0647,-0.0125,0.0074
"Cc1cc2ncnn2cc1Nc1ncc2c(n1)n(C1CCOCC1)c(=O)n2C [AZD7648] + C=CCn1c(=O)c2cnc(Nc3ccc(N4CCN(C)CC4)cc3)nc2n1-c1cccc(C(C)(C)O)n1 [AZD1775] (first compound max 10 µM, partner max 1 µM)",0.0237,-0.0322,0.0071,0.0566,-0.0189,-0.0337,-0.0041,0.0159,0.0333,-0.0055,-0.011,-0.0279,-0.0215,0.0054,-0.0342,-0.0244,-0.039,-0.0209,-0.0551
"Cc1cc2ncnn2cc1Nc1ncc2c(n1)n(C1CCOCC1)c(=O)n2C [AZD7648] + C[C@@H]1COCCN1C2=NC(=NC(=C2)C3(CC3)[S@](=N)(=O)C)C4=C5C=CNC5=NC=C4 [AZD6738] (first compound max 10 µM, 7x7, partner max 10 µM)",-0.0194,-0.0133,0.018,0.0627,-0.0453,0.0247,0.0412,-0.0639,-0.0061,0.0546,0.0143,-0.0451,-0.0048,-0.0383,0.024,0.009,0.0028,-0.0708,0.0009
"COc1cccc(OCCCN)c1-c1cc(Nc2cnc(C#N)cn2)n[nH]1 [Prexasertib] + C[C@@H]1COCCN1C2=NC(=NC(=C2)C3(CC3)[S@](=N)(=O)C)C4=C5C=CNC5=NC=C4 [AZD6738] (first compound max 1 µM, 7x7, partner max 10 µM)",-0.0473,-0.0548,-0.0195,0.0649,0.0032,0.0381,0.0426,-0.0393,-0.0265,-0.0238,-0.0018,-0.081,-0.0367,-0.0104,-0.0253,-0.0698,-0.0372,-0.0078,-0.0137
"COc1cccc(OCCCN)c1-c1cc(Nc2cnc(C#N)cn2)n[nH]1 [Prexasertib] + O=C(c1cc(Cc2n[nH]c(=O)c3ccccc23)ccc1F)N1CCN(C(=O)C2CC2)CC1 [Olaparib] (first compound max 1 µM, 7x7, partner max 10 µM)",0.0169,-0.0677,-0.0364,-0.0206,-0.0595,-0.0795,-0.0979,0.0514,0.0491,-0.0891,-0.113,-0.0407,-0.126,-0.0162,-0.127,-0.0645,-0.0358,-0.153,-0.0658
"COc1cccc2c1C(=O)c1c(O)c3c(c(O)c1C2=O)C[C@@](O)(C(=O)CO)C[C@@H]3O[C@H]1C[C@H](N)[C@H](O)[C@H](C)O1 [Doxorubicin] + Cc1cc2ncnn2cc1Nc1ncc2c(n1)n(C1CCOCC1)c(=O)n2C [AZD7648] (first compound max 1 µM, 7x7, partner max 10 µM)",0.0953,0.0402,0.107,0.0891,0.0022,0.0271,0.0173,-0.002,0.0648,0.0152,0.0742,-0.0486,0.0751,0.0341,-0.0298,0.0162,0.0709,-0.0037,-0.0146
"COc1cccc(OCCCN)c1-c1cc(Nc2cnc(C#N)cn2)n[nH]1 [Prexasertib] + CN(C)CCCOc1ccc(-c2ccc3ncc4c(c3c2)n(C2CCOCC2)c(=O)n4C)cn1 [AZD0156] (first compound max 1 µM, 7x7, partner max 1 µM)",-0.0676,0.021,0.0084,-0.0532,0.0713,-0.021,-0.0927,0.002,-0.0386,-0.0129,-0.0194,-0.0178,0.011,-0.0071,-0.0381,0.0558,-0.0165,-0.0336,-0.0009
"Cc1cc2ncnn2cc1Nc1ncc2c(n1)n(C1CCOCC1)c(=O)n2C [AZD7648] + CCN(CCO)CCCOc1ccc2c(Nc3cc(CC(=O)Nc4cccc(F)c4)[nH]n3)ncnc2c1 [AZD2811] (first compound max 10 µM, 7x7, partner max 1 µM)",-0.025,-0.0154,0.043,0.0999,0.0003,-0.0244,0.0339,-0.0193,0.003,0.0419,0.0415,0.0131,-0.0182,-0.021,0.0081,-0.0093,0.0312,-0.0184,0.0666
"CN(C)CCCOc1ccc(-c2ccc3ncc4c(c3c2)n(C2CCOCC2)c(=O)n4C)cn1 [AZD0156] + C=CCn1c(=O)c2cnc(Nc3ccc(N4CCN(C)CC4)cc3)nc2n1-c1cccc(C(C)(C)O)n1 [AZD1775] (first compound max 1 µM, partner max 1 µM)",0.0116,-0.0245,-0.0207,-0.0507,-0.051,-0.0412,-0.0779,0.0559,-0.0386,-0.0706,-0.0198,-0.0627,-0.0027,0.001,-0.0181,0.0183,-0.0055,-0.0401,-0.0482
